Laboratory results taken from PMC3209502 (European journal of pharmacology, 2011).

Experiments:
Sprague Dawley Rats = assay: Locomotor activity test; type: in vivo, rat; conditions: 5 mg/kg i.p., measured 0.5 h from 1 h post injection, vs vehicle
male Sprague Dawley rats = assay: Rat forced swimming test; type: in vivo; conditions: 15 mg/kg i.p., 30 min pretreatment, vs vehicle
C57Bl/6 mice = assay: Mouse tail suspension test; type: in vivo; conditions: 15 mg/kg, 30 min before testing, vs vehicle

| Structure (SMILES) | locomotor activity (horizontal activity, HACTV) (Sprague Dawley Rats) | duration of immobility in the forced swimming test (male Sprague Dawley rats) | immobility of mice in the tail suspension test (C57Bl/6 mice) |
| --- | --- | --- | --- |
| Fc1ccc(C(OCCN2CCN(CCCc3ccccc3)CC2)c2ccc(F)cc2)cc1 [GBR 12909, 1-[2-[bis(4-fluorophenyl)methoxy]ethyl]-4-[3-phenylpropyl]piperazine] | significant rise | – | – |
| CN(C)CCCN1c2ccccc2CCc2ccccc21 [imipramine, Imipramine] | – | produced a reduction in immobility | significantly different compared to vehicle |
